Read-outs that look alike come from different tables or passages of the source.
Assays:
[1] = human, in vivo
[2] = ref Dunne et al. 16; cited from earlier work
[3] = test system: plasma proteins (mainly albumin); details: human; cited from earlier work
[4] = single 1000 mg infusion; ref Nicolau et al. 14; cited from earlier work
[5] = Adverse events under DBV; format: in vivo, human
Source text: Table 1 Overall patients’ characteristics at the baseline. | column: Overall / n = 76; Intensive PK Study (n = 41) / Group 0 (n = 17)

[6] = cited from earlier work
[7] = clinical; details: human, in vivo, iv
[8] = 35 healthy subjects, single infusion of 1500 mg; ref Rappo et al. 15; cited from earlier work

Compound: CN[C@H]1C(=O)N[C@@H]2Cc3ccc(cc3)Oc3cc4cc(c3O[C@@H]3O[C@H](C(=O)O)[C@@H](O)[C@H](O)[C@H]3NC(=O)CCCCCCCCC(C)C)Oc3ccc(cc3Cl)[C@@H](O)[C@@H]3NC(=O)[C@H](NC(=O)[C@@H]4NC(=O)[C@@H](NC2=O)c2cc(cc(O)c2Cl)Oc2cc1ccc2O)c1ccc(O)c(c1)-c1c(O[C@H]2O[C@H](CO)[C@@H](O)[C@H](O)[C@@H]2O)cc(O)cc1[C@@H](C(=O)NCCCN(C)C)NC3=O [DBV, Dalbavancin]
- AUC0–3w [1]: 39,985 [37,045–39,985] mg/L·h
- Cmax II dose [1]: 379.5 [321.3–448.8] mg/L
- AUC0–1w ([1]; iv): 26,693 [20,842–28,630] mg/L·h
- AUC0–2w ([1]; iv): 34,168 [25,336–37,301] mg/L·h
- AUC0–3w ([1]; iv): 39,270 [28,876–43,971] mg/L·h
- Cmax I dose ([1]; iv): 347.0 [292.4–479.2] mg/L
- Cumul. AUC0–4w ([1]; iv): 41,681 [32,055–48,180] mg/L·h
- Mean bone/plasma AUC [2]: 13.1%
- Protein binding (mean percentage in humans) [3]: 93%
- Mean penetration into skin blister fluid compared with plasma [4]: 59.6%
- AEs: yes ([5]; number of patients [%], group 0 (n = 17): single 1500 mg dose): 1 [6%]
- AEs: yes ([5]; number of patients, overall n = 76): 1
- Elimination half-life [6]: 220 to 240 h
- Cmax ([7]; 1500 mg, Cmax I dose): 343 µg/mL
- Cmax ([7]; Cmax II dose): 337 µg/mL
- Penetration into the epithelial-lining fluid [8]: 36%

Reference: publication PMC9501058, “Clinical Effectiveness and Pharmacokinetics of Dalbavancin in Treatment-Experienced Patients with Skin, Osteoarticular, or Vascular Infections” (Pharmaceutics, 2022)
